The text below walks through data of patent US7071226B1, “Amino-functionalized 1,2,4-trioxanes useful as antimalarial agents and process for preparation thereof” (Council of Scientific and Industrial Research, priority 2004, dated 2006).

This assay deals with multidrug resistant strain of Plasmodium yoelii Nigeriensis. As to the kind of experiment: Antimalarial activity against multidrug resistant P. yoelii in Swiss mice (4-day treatment, observed till day 28). Format: in vivo. The settings on record: for inhibition in vivo at 24 mg/kg/day / inhibition in vivo at 48 mg/kg/day / responders at 24 mg/kg/day / responders at 48 mg/kg/day / inhibition in vivo at 96 mg/kg/day / responders at 96 mg/kg/day / inhibition in vivo at 12 mg/kg/day / responders at 12 mg/kg/day: Plasmodium yoelii; for inhibition in vivo at 24 mg/kg/day / inhibition in vivo at 48 mg/kg/day / inhibition in vivo at 96 mg/kg/day / inhibition in vivo at 12 mg/kg/day: 96 h, read-out: % Suppression on Day 4; for responders at 24 mg/kg/day / responders at 48 mg/kg/day / responders at 96 mg/kg/day / responders at 12 mg/kg/day: 672 h. Here is the method: The antimalarial activity of the test compounds was evaluated in rodent using multidrug resistant strain of Plasmodium yoelii Nigeriensis in Swiss mice.
Random bred Swiss mice of either sex (20±2 gm) were inoculated intraperitoneally with 1×10^5 P. yoelii (MDR) parasites on day zero. Treatments with test compounds were administered to group of 5 mice each at different dose levels ranging between 12–96 mg/kg/day. Treatment was administered in groundnut oil intramuscularly and orally for 4 consecutive days (day 0–3). Blood smears from experimental mice were observed on day 4 and 7, day 10 and thereafter at regular intervals till day 28 or death of animal. Parasitaemia level on day 4 was compared with vehicle control group and percent suppression of parasitaemia in treated groups was calculated. […] The dose at which no parasitaemia develop during the observation period was reported as curative dose.

Where [1] appears, read: po, read-out: Mice alive on day-28.
[2] abbreviates: Swiss mice, 96 mg/kg/day, im, day 0-3.
Where [3] appears, read: Swiss mice, 96 mg/kg/day, im, day 0-3, in groundnut oil.
Setting [4] is: po, Swiss mice, 96 mg/kg/day, oral, day 0-3, in groundnut oil.
Setting [5] is: po, Swiss mice, 96 mg/kg/day, oral, day 0-3, read-out: Mice alive on day-28 (converted).
Where [6] appears, read: im, Swiss mice, 96 mg/kg/day, im, day 0-3, in groundnut oil.
The mark [7] stands for this setting: im, Swiss mice, 96 mg/kg/day, im, day 0-3, read-out: Mice alive on day-28 (converted).
Setting [8] is: po, Swiss mice, 48 mg/kg/day, oral, day 0-3, in groundnut oil.
[9] abbreviates: po, Swiss mice, 48 mg/kg/day, oral, day 0-3, read-out: Mice alive on day-28 (converted).
The mark [10] stands for this setting: Swiss mice, 48 mg/kg/day, oral, day 0-3, 48 mg/kg/day.
The mark [11] stands for this setting: po, Swiss mice, oral, day 0-3, in groundnut oil.
[12] abbreviates: po, Swiss mice, 24 mg/kg/day, oral, day 0-3, in groundnut oil.
Setting [13] is: po, Swiss mice, oral, day 0-3, read-out: Mice alive on day-28.
[14] abbreviates: po, Swiss mice, 24 mg/kg/day, oral, day 0-3, read-out: Mice alive on day-28 (converted).
Where [15] appears, read: Swiss mice, 48 mg/kg/day, oral, day 0-3, in groundnut oil.
[16] abbreviates: Swiss mice, 96 mg/kg/day, oral, day 0-3.
Setting [17] is: Swiss mice, 96 mg/kg/day, oral, day 0-3, in groundnut oil.
Where [18] appears, read: Swiss mice, 24 mg/kg/day, oral, day 0-3, in groundnut oil.

Like-named read-outs stand apart in the source and are kept apart here.

Consider `CCN(CC)CCCC(C)Nc1ccnc2cc(Cl)ccc12` (stereo not shown) [Chloroquine, reference compound], for which, for the setting “po”, the inhibition in vivo at 24 mg/kg/day worked out at 100% and the inhibition in vivo at 48 mg/kg/day came to 100%. Under setting [1], the responders at 24 mg/kg/day was 0% and the responders at 48 mg/kg/day is 40%.

Consider `C=C(c1ccccc1)C1COC2(CCC(=O)CC2)OO1` (stereo not shown) [Compound 3a, 3-(1-Phenyl-Vinyl)-1,2,5-Trioxaspiro[5.5]undec-9-one], for which, under setting [2], the “Mice alive on day-28” value is listed as 0/5. Moreover, the “% Suppression on Day 4” value under setting [3] is 99%.

On to `C=C(c1ccc(-c2ccccc2)cc1)C1COC2(CCC(=O)CC2)OO1` (stereo not shown) [Compound 3b, 3-(1-Biphenyl-4yl-Vinyl)-1,2,5-Trioxaspiro[5.5]undec-9-one], for which, under setting [2], the “Mice alive on day-28” value was 1/5. Moreover, under setting [3], the “% Suppression on Day 4” value stood at 100%.

`C=C(c1ccc(Cl)cc1)C1COC2(CCC(=O)CC2)OO1` (stereo not shown) [Compound 3c, 3-[1-(4-Chloro-Phenyl)-Vinyl]-1,2,5-Trioxa-Spiro[5.5]undecan-9-one]: the inhibition in vivo at 96 mg/kg/day under setting [4] is 100%. Also, under setting [5], the responders at 96 mg/kg/day was 0%.

For `C=C(c1ccccc1)C1COC2(CCC(Nc3ccc(Cl)cc3)CC2)OO1` (stereo not shown) [Compound 4aa, (4-Chloro-Phenyl)-[3-(1-Phenyl-Vinyl)-1,2,5-Trioxa-Spiro[5.5]undec-9-yl]-Amine], the inhibition in vivo at 96 mg/kg/day under setting [6] came to 71% and the inhibition in vivo at 96 mg/kg/day under setting [4] was found to be 100%. Further, the responders at 96 mg/kg/day by setting is: under setting [7], 40%; under setting [5], 100%. Besides, under setting [8], the inhibition in vivo at 48 mg/kg/day was found to be 100%. Under setting [9], the responders at 48 mg/kg/day is 60%.

Take `C=C(c1ccccc1)C1COC2(CCC(Nc3ccccc3-c3ccccc3)CC2)OO1` (stereo not shown) [Compound 4ab, Biphenyl-2-yl-[3-(1-Phenyl-Vinyl)-1,2,5-Trioxa-Spiro[5.5]undec-9-yl]Amine]: the inhibition in vivo at 48 mg/kg/day under setting [8] was 100%. Under setting [4], the inhibition in vivo at 96 mg/kg/day came to 100%. The responders at 96 mg/kg/day under setting [5] was 100%. Further, the “Mice alive on day-28” value under setting [10] was 0/5.

Regarding `C=C(c1ccccc1)C1COC2(CCC(Nc3ccccc3-c3ccccc3)CC2)OO1` (stereo not shown) [Compound 4ac, Biphenyl-2-yl-[3-(1-Phenyl-Vinyl)-1,2,5-Trioxa-Spiro[5.5]undec-9-yl]Amine], under setting [6], the inhibition in vivo at 96 mg/kg/day was 74%. Further, under setting [7], the responders at 96 mg/kg/day was 0%. The inhibition in vivo at 12 mg/kg/day under setting [11] is 100%. Under setting [12], the inhibition in vivo at 24 mg/kg/day stood at 100%. Moreover, the responders at 12 mg/kg/day under setting [13] stood at 0%. The responders at 24 mg/kg/day under setting [14] is 40%. Besides, the “% Suppression on Day 4” value stood at 100% under setting [15] and 100% under setting [17]. Further, the “Mice alive on day-28” value under setting [10] is on record as 5/5 and the “Mice alive on day-28” value under setting [16] is reported as 5/5.

Consider `C=C(c1ccccc1)C1COC2(CCC(Nc3ccc(-c4ccccc4)cc3)CC2)OO1` (stereo not shown) [Compound 4ad, Biphenyl-4-yl-[3-(1-Phenyl-Vinyl)-1,2,5-Trioxa-Spiro[5.5]undec-9-yl]Amine], for which the inhibition in vivo at 12 mg/kg/day under setting [11] was 99%. In addition, the inhibition in vivo at 24 mg/kg/day under setting [12] is 100%. Moreover, the inhibition in vivo at 48 mg/kg/day under setting [8] was found to be 100%. Also, the inhibition in vivo at 96 mg/kg/day under setting [4] stood at 100%. Further, under setting [13], the responders at 12 mg/kg/day came to 0%. Also, the responders at 24 mg/kg/day under setting [14] was 60%. For the same compound, under setting [9], the responders at 48 mg/kg/day was 100%. In addition, the responders at 96 mg/kg/day under setting [5] was 100%.

As to `C=C(c1ccccc1)C1COC2(CCC(Nc3ccc4c(c3)-c3ccccc3C4)CC2)OO1` (stereo not shown) [Compound 4ae], the “Mice alive on day-28” value under setting [16] is on record as 5/5. Also, the “% Suppression on Day 4” value under setting [17] turned out to be 100%.

`C=C(c1ccccc1)C1COC2(CCC(Nc3cccc(C(F)(F)F)c3)CC2)OO1` (stereo not shown) [Compound 4ah, [3-(1-Phenyl-Vinyl)-1,2,5-Trioxa-Spiro[5.5]undec-9-yl]-(3-Trifluoromethyl-Phenyl)-Amine]: the inhibition in vivo at 96 mg/kg/day under setting [6] is 83% and the inhibition in vivo at 96 mg/kg/day under setting [4] was 100%. In addition, the responders at 96 mg/kg/day was 0% under setting [7] and 100% under setting [5]. Also, under setting [12], the inhibition in vivo at 24 mg/kg/day stood at 100%. Besides, under setting [8], the inhibition in vivo at 48 mg/kg/day is 100%. Under setting [14], the responders at 24 mg/kg/day was 20%. The responders at 48 mg/kg/day under setting [9] was 100%.

With `C=C(c1ccc(-c2ccccc2)cc1)C1COC2(CCC(Nc3ccc(Cl)cc3)CC2)OO1` (stereo not shown) [Compound 4ba, [3-(1-Biphenyl-4-yl-Vinyl)-1,2,5-Trioxa-Spiro[5.5]undec-9-yl]-(4-Chloro-Phenyl)-Amine], the inhibition in vivo at 96 mg/kg/day under setting [4] stood at 100%. Moreover, the responders at 96 mg/kg/day under setting [5] is 100%.

Regarding `C=C(c1ccc(-c2ccccc2)cc1)C1COC2(CCC(Nc3ccccc3C(F)(F)F)CC2)OO1` (stereo not shown) [Compound 4bg, [3-(1-Biphenyl-4-yl-vinyl)-1,2,5-trioxa-spiro[5.5]undec-9-yl]-(2-trifluoromethyl-phenyl)-amine], under setting [4], the inhibition in vivo at 96 mg/kg/day was 100%. The responders at 96 mg/kg/day under setting [5] was 40%.

As to `C=C(c1ccc(Cl)cc1)C1COC2(CCC(Nc3ccc(C)cc3)CC2)OO1` (stereo not shown) [Compound 4cb, {3-[1-(4-Chloro-Phenyl)-Vinyl]-1,2,5-Trioxa-Spiro[5.5]undec-9-yl}-p-Tolyl-Amine], the inhibition in vivo at 48 mg/kg/day under setting [8] came out at 100%. The responders at 48 mg/kg/day under setting [9] is 100%.

As for `C=C(c1ccc(Cl)cc1)C1COC2(CCC(Nc3ccc(Cl)cc3)CC2)OO1` (stereo not shown) [Compound 4cc], the “Mice alive on day-28” value by setting is: (Swiss mice, 24 mg/kg/day, oral, day 0-3) 4/5; (Swiss mice, 48 mg/kg/day, oral, day 0-3) 5/5. In addition, the “% Suppression on Day 4” value is, setting by setting: under setting [18], 100%; under setting [15], 100%.

As to `C=C(c1ccc(Cl)cc1)C1COC2(CCC(Nc3cc(Cl)cc(Cl)c3)CC2)OO1` (stereo not shown) [Compound 4ce, {3-[1-(4-Chloro-phenyl)-vinyl]-1,2,5-trioxa-spiro[5.5]undec-9-yl}-(3,5-dichloro-phenyl)-amine], the inhibition in vivo at 24 mg/kg/day under setting [12] came out at 100%. Further, the inhibition in vivo at 48 mg/kg/day under setting [8] stood at 100%. In addition, the responders at 24 mg/kg/day under setting [14] was 40%. Moreover, under setting [10], the “Mice alive on day-28” value is reported as 4/5.

For the compound `C=C(c1ccc(Cl)cc1)C1COC2(CCC(Nc3cc(Cl)cc(Cl)c3)CC2)OO1` (stereo not shown) [Compound 4cf, {3-[1-(4-Chloro-phenyl)-vinyl]-1,2,5-trioxa-spiro[5.5]undec-9-yl}-(3,5-dichloro-phenyl)-amine], the “% Suppression on Day 4” value is, setting by setting: under setting [18], 100%; under setting [15], 100%. The “Mice alive on day-28” value by setting is: (Swiss mice, 24 mg/kg/day, oral, day 0-3, 24 mg/kg/day) 1/5; under setting [10], 2/5.

In the case of `C=C(c1ccc(Cl)cc1)C1COC2(CCC(Nc3cccc4ccccc34)CC2)OO1` (stereo not shown) [Compound 4ch, {3-[1-(4-Chloro-phenyl)-vinyl]-1,2,5-trioxa-spiro[5.5]undec-9-yl}-naphthalen-1-yl-amine], the inhibition in vivo at 96 mg/kg/day under setting [4] came to 100%. Under setting [5], the responders at 96 mg/kg/day was 40%.

For `C=C(c1ccc(Cl)cc1)C1COC2(CCC(Nc3ccccc3-c3ccccc3)CC2)OO1` (stereo not shown) [Compound 4cj, Biphenyl-2-yl-{3-[1-(4-Chloro-Phenyl)-Vinyl]-1,2,5-Trioxa-Spiro[5.5]undec-9-yl}-Amine], the inhibition in vivo at 24 mg/kg/day under setting [12] was determined as 100%. Further, the inhibition in vivo at 48 mg/kg/day under setting [8] worked out at 100%. Also, the responders at 24 mg/kg/day under setting [14] was 40%. For the same compound, the responders at 48 mg/kg/day under setting [9] is 100%.

On to `C=C(c1ccc(Cl)cc1)C1COC2(CCC(Nc3ccc(-c4ccccc4)cc3)CC2)OO1` (stereo not shown) [Compound 4ck, Biphenyl-4-yl-{3-[1-(4-Chloro-Phenyl)-Vinyl]-1,2,5-Trioxa-Spiro[5.5]undec-9-yl}-Amine], for which the inhibition in vivo at 96 mg/kg/day under setting [4] was 100%. The responders at 96 mg/kg/day under setting [5] is 40%.

Regarding `C=C(c1ccc(Cl)cc1)C1COC2(CCC(Nc3cccc(C(F)(F)F)c3)CC2)OO1` (stereo not shown) [Compound 4co, {3-[1-(4-Chloro-phenyl)-vinyl]-1,2,5-trioxa-spiro[5.5]undec-9-yl}-(3-trifluoromethyl-phenyl)-amine], the inhibition in vivo at 96 mg/kg/day under setting [6] stood at 73% and the inhibition in vivo at 96 mg/kg/day under setting [4] was determined as 100%. The responders at 96 mg/kg/day was 0% under setting [7] and 100% under setting [5]. For the same compound, the inhibition in vivo at 24 mg/kg/day under setting [12] was 100%. Also, the inhibition in vivo at 48 mg/kg/day under setting [8] was found to be 100%. The responders at 24 mg/kg/day under setting [14] is 60%. In addition, the responders at 48 mg/kg/day under setting [9] was 100%.
